± gives the uncertainty stated by the source.
Experiment: TIMS collision cross section in N2 (TIMS CCS N2); higher = larger gas-phase ion size
Conditions: drift gas: N2 (99.4% N2, 0.6% O2), calibration: Stow et al. 2017 values for Agilent ESI-L Low Concentration Tune Mix, ionization: negative ESI
Method: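 Authentic plant natural product standards (10-50 ppm in 80% methanol) were analysed by UHPLC (BEH C18, 60 °C) coupled to a Bruker timsTOF Pro in negative ESI with N2 drift gas. TIMS collision cross sections were computed from mobility peak apices after calibration with Agilent Tune Mix using Stow et al. reference values. Values are the average of triplicate runs on different days, reported per annotated ion species (deprotonated ion, adducts, dimer, oxidized ion).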

TIMS collision cross section in N2 (ion species: [M-H]-) | SMILES | also measured
156.14 ± 0.1 Å² | O=c1cc(-c2ccccc2)oc2cc(O)cc(O)c12 [Chrysin] | TIMS collision cross section in N2 (ion species: [2M-H]-): 230.51 ± 0.25 Å²
184.13 ± 0.17 Å² | CC(C)=CCC1=C(O)C(O)(CC=C(C)C)C(=O)C(C(=O)C(C)C)=C1O (centres undefined) [Cohumulone] | –
220.34 ± 0.4 Å² | C[C@H]1[C@H](C)CC[C@]2(C(=O)O)CC[C@]3(C)C(=CC[C@@H]4[C@@]5(C)C[C@@H](O)[C@H](O)C(C)(C)[C@@H]5CC[C@]43C)[C@H]12 [Corosolic acid] | TIMS collision cross section in N2 (ion species: [M-H+Na+HCO2H]-): 231.55 ± 0.4 Å²
190.83 ± 0.34 Å² | COc1cc(O)c2c(=O)cc(-c3cc(OC)c(OC)c(OC)c3)oc2c1 [Corymbosin] | –
155.75 ± 0.042 Å² | O=c1oc2cc(O)ccc2c2oc3cc(O)ccc3c12 [Coumestrol] | TIMS collision cross section in N2 (ion species: [2M-H]-): 245.05 ± 0.43 Å²
157.59 ± 0.0071 Å² | O=c1c(-c2ccc(O)cc2)coc2cc(O)ccc12 [Daidzein] | TIMS collision cross section in N2 (ion species: [2M-H]-): 246.33 ± 0.2 Å²
161.89 ± 0.17 Å² | Oc1ccc2c(c1)O[C@H]1c3ccc(O)cc3OC[C@@H]21 [Demethyl medicarpin] | –
183.45 ± 0.15 Å² | CC(C)=CCc1c(O)cc(O)c(C(=O)/C=C/c2ccc(O)cc2)c1O [Desmethylxanthohumol] | –
164.03 ± 0.16 Å² | O=C1c2c(O)cc(O)cc2O[C@H](c2ccc(O)cc2)[C@H]1O [Dihydrokaempferol] | TIMS collision cross section in N2 (ion species: [2M-H]-): 248.74 ± 0.038 Å²; TIMS collision cross section in N2 (ion species: [M-H+Na+HCO2H]-): 186.44 ± 0.2 Å²
171.28 ± 0.2 Å² | COc1ccc(-c2cc(=O)c3c(O)cc(O)cc3o2)cc1O [Diosmetin] | –
233.82 ± 0.23 Å² | COc1ccc(-c2cc(=O)c3c(O)cc(O[C@@H]4O[C@H](CO[C@@H]5O[C@@H](C)[C@H](O)[C@@H](O)[C@H]5O)[C@@H](O)[C@H](O)[C@H]4O)cc3o2)cc1O [Diosmin] | TIMS collision cross section in N2 (ion species: [M-H+Na+HCO2H]-): 247.05 ± 0.28 Å²
165.97 ± 0.11 Å² | O=C1C[C@@H](c2ccc(O)c(O)c2)Oc2cc(O)cc(O)c21 [Eriodictyol] | –
185.44 ± 0.18 Å² | COc1ccc(-c2cc(=O)c3c(O)c(OC)c(O)cc3o2)cc1OC [Eupatilin] | TIMS collision cross section in N2 (ion species: [M-H+Na+HCO2H]-): 201.78 ± 0.15 Å²
172.28 ± 0.21 Å² | Cc1c(O)c(C)c2c(c1O)C(=O)C[C@@H](c1ccc(O)cc1)O2 [Farrerol] | TIMS collision cross section in N2 (ion species: [M-H+Na+HCO2H]-): 186.6 ± 0.36 Å²
162.38 ± 0.017 Å² | O=c1c(O)c(-c2ccc(O)c(O)c2)oc2cc(O)ccc12 [Fisetin] | TIMS collision cross section in N2 (ion species: [M-3H]-): 157.48 ± 0.065 Å²
163.76 ± 0.32 Å² | COc1ccc(-c2coc3cc(O)ccc3c2=O)cc1 [Formononetin] | TIMS collision cross section in N2 (ion species: [2M-H]-): 257.46 ± 0.31 Å²
159.89 ± 0.26 Å² | O=c1c(-c2ccc(O)cc2)coc2cc(O)cc(O)c12 [Genistein] | TIMS collision cross section in N2 (ion species: [2M-H]-): 249.93 ± 0.16 Å²
212.14 ± 0.076 Å² | O=c1c(-c2ccc(O)cc2)coc2cc(O[C@@H]3O[C@H](CO)[C@@H](O)[C@H](O)[C@H]3O)cc(O)c12 [Genistin] | TIMS collision cross section in N2 (ion species: [M-H+HCO2H]-): 220.37 ± 0.15 Å²
166.87 ± 0.13 Å² | COc1cc2c(=O)c(-c3ccc(O)cc3)coc2cc1O [Glycitein] | TIMS collision cross section in N2 (ion species: [M-H+Na+HCO2H]-): 184.69 ± 0.23 Å²
279.43 ± 0.38 Å² | CC1(C)[C@@H](O[C@H]2O[C@H](C(=O)O)[C@@H](O)[C@H](O)[C@H]2O[C@@H]2O[C@H](C(=O)O)[C@@H](O)[C@H](O)[C@H]2O)CC[C@]2(C)[C@H]3C(=O)C=C4[C@@H]5C[C@@](C)(C(=O)O)CC[C@]5(C)CC[C@@]4(C)[C@]3(C)CC[C@@H]12 [Glycyrrhizic acid] | –
222.47 ± 0.52 Å² | CC1(C)CC[C@]2(C(=O)O)CC[C@]3(C)C(=CC[C@@H]4[C@@]5(C)CC[C@H](O)[C@@](C)(CO)[C@@H]5CC[C@]43C)[C@@H]2C1 [Hederagenin] | TIMS collision cross section in N2 (ion species: [M-H+Na+HCO2H]-): 234.04 ± 0.57 Å²
174.45 ± 0.021 Å² | CCCCCCCCCCCCCCCCC(=O)O [Heptadecanoic acid] | TIMS collision cross section in N2 (ion species: [2M-H]-): 259.04 ± 0.54 Å²
172.79 ± 0.23 Å² | COc1ccc([C@@H]2CC(=O)c3c(O)cc(O)cc3O2)cc1O [Hesperetin] | TIMS collision cross section in N2 (ion species: [2M-H]-): 219.76 ± 0.28 Å²
165.52 ± 0.17 Å² | COc1c(O)cc2oc(-c3ccc(O)cc3)cc(=O)c2c1O [Hispidulin] | –

TIMS collision cross section in N2 (ion species: [M-H]-) | SMILES | also measured
168.62 ± 0.075 Å² | COc1cc([C@@H]2CC(=O)c3c(O)cc(O)cc3O2)ccc1O [Homoeriodictyol] | TIMS collision cross section in N2 (ion species: [M-H+Na+HCO2H]-): 188.05 ± 0.04 Å²
188.57 ± 0.35 Å² | CC(C)=CCC1C(=O)C(C(=O)CC(C)C)=C(O)C(O)(CC=C(C)C)C1=O (centres undefined) [Humulone] | –
190.48 ± 0.09 Å² | COc1ccc(-c2cc(=O)c3c(O)c(OC)c(O)c(OC)c3o2)cc1OC [Hymenoxin] | TIMS collision cross section in N2 (ion species: [M-H+Na+HCO2H]-): 207.1 ± 0.28 Å²
– | COc1ccc(-c2oc3c(CC=C(C)C)c(O[C@@H]4O[C@H](CO)[C@@H](O)[C@H](O)[C@H]4O)cc(O)c3c(=O)c2O[C@@H]2O[C@@H](C)[C@H](O)[C@@H](O)[C@H]2O)cc1 [Icariin] | TIMS collision cross section in N2 (ion species: [M-H+HCO2H]-): 256.3 ± 1.1 Å²
187.14 ± 0.21 Å² | CC(C)=CCC(=O)C1(O)C(O)=C(C(=O)CC(C)C)C(=O)C1CC=C(C)C (centres undefined) [Isohumulone] | –
231.11 ± 0.1 Å² | C[C@@H]1O[C@@H](OC[C@H]2O[C@@H](Oc3cc(O)c4c(=O)cc(-c5ccc(O)cc5)oc4c3)[C@H](O)[C@@H](O)[C@@H]2O)[C@H](O)[C@H](O)[C@H]1O [Isorhoifolin] | TIMS collision cross section in N2 (ion species: [M-H+Na+HCO2H]-): 237.1 ± 0.28 Å²
217.58 ± 0.11 Å² | COc1ccc([C@@H]2CC(=O)c3c(O)cc(O[C@@H]4O[C@H](CO)[C@@H](O)[C@H](O)[C@H]4O)cc3O2)cc1 [Isosakuranin] | TIMS collision cross section in N2 (ion species: [M-H+HCO2H]-): 213.68 ± 0.13 Å²
167.04 ± 0.26 Å² | COc1ccc(-c2oc3cc(O)cc(O)c3c(=O)c2O)cc1 [Kaempferide] | –
161.08 ± 0.12 Å² | O=c1c(O)c(-c2ccc(O)cc2)oc2cc(O)cc(O)c12 [Kaempferol] | TIMS collision cross section in N2 (ion species: [2M-H]-): 234.8 ± 0.14 Å²
159.28 ± 0.075 Å² | O=C1C[C@@H](c2ccc(O)cc2)Oc2cc(O)ccc21 [Liquiritigenin] | TIMS collision cross section in N2 (ion species: [2M-H]-): 202.54 ± 0.082 Å²
201.76 ± 0.7 Å² | CC(C)=CCC1=C(O)C(C(=O)CC(C)C)=C(O)C(CC=C(C)C)(CC=C(C)C)C1=O [Lupulone] | –
236.98 ± 0.087 Å² | O=c1cc(-c2ccc(O)c(O[C@@H]3OC(CO)[C@@H](O)[C@@H](O)C3O)c2)oc2cc(O[C@@H]3OC(CO)[C@@H](O)[C@@H](O)C3O)cc(O)c12 (some centres undefined) [Luteolin-7,3'-di-O-glucoside] | –
160.69 ± 0.18 Å² | O=c1cc(-c2ccc(O)c(O)c2)oc2cc(O)cc(O)c12 [Luteolin] | TIMS collision cross section in N2 (ion species: [2M-H]-): 234.87 ± 0.19 Å²
223.91 ± 0.25 Å² | C[C@H]1[C@H](C)CC[C@]2(C(=O)O)CC[C@]3(C)C(=CC[C@@H]4[C@@]5(C)C[C@@H](O)[C@H](O)[C@@](C)(CO)[C@@H]5[C@H](O)C[C@]43C)[C@H]12 [Madecassic acid] | –
162.69 ± 0.1 Å² | CCCCCCCCCCCCCC(=O)O [Myristic acid] | –
163.01 ± 0.16 Å² | O=C1C[C@@H](c2ccc(O)cc2)Oc2cc(O)cc(O)c21 [Naringenin] | –
215.92 ± 0.17 Å² | C[C@@H]1O[C@@H](O[C@H]2[C@H](Oc3cc(O)c4c(c3)O[C@H](c3ccc(O)cc3)CC4=O)O[C@H](CO)[C@@H](O)[C@@H]2O)[C@H](O)[C@H](O)[C@H]1O [Naringin] | TIMS collision cross section in N2 (ion species: [M-H+Na+HCO2H]-): 220.79 ± 0.26 Å²
226.82 ± 0.1 Å² | COc1ccc([C@@H]2CC(=O)c3c(O)cc(O[C@@H]4O[C@H](CO)[C@@H](O)[C@H](O)[C@H]4O[C@@H]4O[C@@H](C)[C@H](O)[C@@H](O)[C@H]4O)cc3O2)cc1O [Neohesperidin] | –
– | COc1ccc(-c2coc3cc(O[C@@H]4O[C@H](CO)[C@@H](O)[C@H](O)[C@H]4O)ccc3c2=O)cc1 [Ononin (Formononetin 7-O-glucoside)] | TIMS collision cross section in N2 (ion species: [M-H+HCO2H]-): 223.35 ± 0.14 Å²
170.37 ± 0.16 Å² | CCCCCCCCCCCCCCCC(=O)O [Palmitic acid] | –
166.43 ± 0.15 Å² | CCCCCCCCCCCCCCC(=O)O [Pentadecanoic acid] | –
– | COc1ccc(-c2cc(=O)c3ccc(O)cc3o2)cc1 [Pratol] | TIMS collision cross section in N2 (ion species: [2M-H]-): 234 ± 0.056 Å²
167.78 ± 0.0071 Å² | COc1cc(O)c2c(=O)c(-c3ccc(O)cc3)coc2c1 [Prunetin] | TIMS collision cross section in N2 (ion species: [2M-H]-): 264.09 ± 0.09 Å²
220.9 ± 0.38 Å² | C[C@H]1[C@H](C)CC[C@]2(C(=O)O)CC[C@]3(C)C(=CC[C@@H]4[C@@]5(C)C[C@@H](O)[C@@H](O)C(C)(C)[C@@H]5CC[C@]43C)[C@H]12 [Pygenic acid A] | –

— the supplement of paper PMC7023306
